Experimental data from BigSolDB 2.1.

CC(=O)N1CN(C(C)=O)CN(C(C)=O)C1
solubility (mole fraction)
Settings | 298 K | 303 K | 308 K | 313 K | 318 K
in acetonitrile | 0.0478 | 0.0695 | 0.102 | 0.142 | 0.202
in ethyl acetate | 0.0153 | 0.0178 | 0.0198 | 0.0236 | 0.0271
in methanol | 0.204 | 0.238 | 0.283 | 0.335 | 0.395
in water | 0.00434 | 0.00612 | 0.0085 | 0.0125 | 0.018
